The conditions of data set [1]: background statement on known inhibitor; cited from earlier work.
The subject of the next data set is rat astrocytes. The data set is described as follows: Inhibition of exosome release from primary astrocytes in vitro. Conditions: 0.3-10 μM, 2 h after treatment, vs DMSO (0.02%). The class given is cell-based. As for the experimental part: The effect of nSMase2 inhibitors on the manufacturing and release of ceramide rich exosomes from primary astrocytes was investigated as previously described. Dickens, et al. Briefly, rat astrocytes are seeded onto 6-well plates at a density of 20,000 cells/well. Twenty-four hours after seeding, astrocytes are washed with PBS and the medium changed to media without FBS. Absence of FBS mimics a trophic factor withdrawal stimulus causing the release of exosomes via a nSMase2-dependent pathway. Astrocytes are then treated with nSMase2 inhibitors at concentrations in the range 0.03-30 μM. DMSO (0.02%) is used as control. Two hours after treatment, media is collected and centrifuged at 2700 g for 15 min (4° C.). Supernatant is further centrifuged at 10,000 g for 15 min (4° C.) to remove large particles such as apoptotic bodies. Astrocyte-derived extracellular vesicles (EVs) are isolated via ultracentrifugation at 100,000 g for 3 h at 4° C. Fractions containing EV are washed twice with 5 ml PBS and the final pellet resuspended in PBS. This isolation procedure results in the isolation of EVs with a narrow size range and protein markers consistent with exosomes. Dickens, et al. The number of EVs is quantified using ZetaView Nanoparticle Tracker (Particle Metrix GmBH, Meerbusch, Germany) and the corresponding ZetaVeiw software (8.03.04.01). Nanosphere size standard 100 nm (Thermo Scientific) is used to calibrate the instrument prior to sample readings. For each sample 1 mL of the supernatant is injected into the sample-carrier cell and the particle count measured at 5 positions, with 2 cycles of reading per position. Cells are washed with PBS after every sample. Mean concentration of EVs/mL (±SEM) is calculated from 6 replicates. This screening assay is reliable with a Z′=0.75.
Referring now to FIG. 4A and FIG. 4B, the ability of compound 38 and several of its analogs to inhibit exosome release in vitro was evaluated as previously described. […] Two hours after treatment, exosomes were isolated from the media and quantified using ZetaView Nanoparticle Tracker. The mean concentration of exosomes (EVs/mL±SEM) was calculated from 6 replicate experiments (see FIG. 4). […] Baseline exosome release can be variable between experiments; as a result, inhibition is always compared relative to vehicle treatment within the same experiment. Structures of compounds with their corresponding IC50s are provided in the second row of FIG. 4.

Data set [2] is described as follows: Phase I metabolic stability in human liver microsomes. The format is in vitro ADME. Conditions: 37° C. How it is done: (§1) Phase I metabolic stability in both mouse and human liver microsomes was performed as described previously. Rais et al. Briefly, compounds are spiked in liver microsomes (mouse, human) and incubated in an orbital shaker at 37° C. […] Compound disappearance is monitored over time using LC/MS/MS.
(In general: Liver microsomes are a subcellular fraction often used to study metabolism.)

Data set [3] is described as follows: Phase I metabolic stability in mouse liver microsomes. The format is in vitro ADME. Conditions: 37° C. How it is done:
as §1

Another data set concerns GFAP-GFP mice. The data set is described as follows: Inhibition of exosome release in vivo after striatal IL-1β injection. Conditions: mouse. How it is done: Striatal injections of IL-1β and exosome measurements are performed as previously described by our group in adult (2-3 month) male GFAP-GFP mice (Jackson Laboratories). Dickens, et al.; McCluskey, et al. Mice are anesthetized with 3% Isoflourane (Baxter) in oxygen (Airgas), and placed in a stereotaxic frame (Stoelting Co.). A small burr hole is drilled in the skull over the left striatum using a dental drill (Fine Scientific Tools). IL1β (0.1 ng/3 μl) is injected (total volume of 3 μl) at the rate 0.5 μl/min via a pulled glass capillary tip diameter <50 μm using the stereotaxic coordinates: A/P+1; M/L-2; -3 D/V. Following infusion, the capillary is held in place for 5 min to allow for solution to diffuse into the tissue. Animals are sacrificed at 2, 12 or 24 h by an overdose of anesthetic, and transcardially perfused with ice-cold saline containing heparin (20 μl per 100 ml, Sigma). Blood is rapidly isolated and flash frozen. […]
GFAP-GFP mice that release green EVs from astrocytes into the systemic circulation were used so that exosome release from astrocytes in plasma can be followed. […] The concentration of immunoprecipitated GFP+ EVs is quantified using ZetaView nanoparticle tracking analysis (Particle Metrix) as described in the cell-based exosome release. […]

Another data set addresses acid sphinghomyelinase (Homo sapiens (Human), UniProt P17405). The experiment in a line: Inhibition of related enzyme acid sphingomyelinase. The class given is biochemical. Conditions: related enzyme (phosphodiesterase).
A further data set concerns alkaline phosphatase. The experiment in a line: Inhibition of related enzyme alkaline phosphatase. Conditions: related enzyme (phosphomonoesterase).
A short description of data set [4]: Pharmacokinetics, plasma and brain levels in mice. As for the experimental part: Blood was obtained via cardiac puncture and brain tissue was dissected at 0.25, 0.5, 1, 2, 4, 6 and 8 h post dose (n=3 per gender and time point). Plasma was harvested from blood by centrifugation. Subsequently, samples were extracted from plasma and brain by a one-step protein precipitation using acetonitrile followed by vortexing for […] and centrifugation (10,000 g for 10 min) as we have described previously. Rais, et al. Once extracted, the samples were reconstituted into a mobile phase and analyzed via LC/MS/MS. Plasma concentrations (nM) as well as tissue concentrations (pmol/g) were determined and plots of mean plasma concentration vs. time were constructed for PK analysis. Non-compartmental-analysis modules in WinNonlin® (version 5.3) were used to assess pharmacokinetic parameters including maximal concentration (Cmax), time to Cmax (Tmax), area under the curve extrapolated to infinity (AUC0-∞) and brain-to-plasma (B/P) ratios.

Data set [5] deals with panel of 44 selected targets.

acid sphinghomyelinase, sequence (P17405 47-631): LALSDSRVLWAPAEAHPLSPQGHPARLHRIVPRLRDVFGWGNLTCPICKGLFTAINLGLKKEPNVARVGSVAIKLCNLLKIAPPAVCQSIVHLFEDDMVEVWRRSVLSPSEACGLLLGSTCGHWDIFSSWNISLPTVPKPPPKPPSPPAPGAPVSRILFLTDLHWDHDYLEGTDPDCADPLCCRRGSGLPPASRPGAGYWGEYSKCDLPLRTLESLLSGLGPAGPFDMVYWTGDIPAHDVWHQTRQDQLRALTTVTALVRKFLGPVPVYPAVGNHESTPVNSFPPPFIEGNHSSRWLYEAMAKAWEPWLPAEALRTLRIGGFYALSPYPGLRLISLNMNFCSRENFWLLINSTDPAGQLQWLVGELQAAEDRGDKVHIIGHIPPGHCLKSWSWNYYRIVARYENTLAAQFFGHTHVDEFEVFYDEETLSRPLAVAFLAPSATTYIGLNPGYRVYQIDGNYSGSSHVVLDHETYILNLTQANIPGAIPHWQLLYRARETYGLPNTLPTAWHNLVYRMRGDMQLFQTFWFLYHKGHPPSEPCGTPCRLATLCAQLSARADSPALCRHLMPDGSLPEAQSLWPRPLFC
Experimental for alkaline phosphatase: Phosphorylcholine undergoes dephosphorylation in a reaction catalyzed by alkaline phosphatase (4 U/mL) to produce choline which in turn is oxidized by choline oxidase (0.1 U/mL) to betaine and hydrogen peroxide (H2O2). Hydrogen peroxide is made to react with Amplex red (50 μM) in the presence of horseradish peroxidase (HRP, 1 U/mL) to generate the fluorescent molecule resorufin. Generation of fluorescence is monitored by measuring relative florescence units (RFU) with excitation at 530 nm and emission at 590 nm. Extent of fluorescence is directly proportional to the extent of SM hydrolysis. Substrate stock solution is prepared in 2% Triton X-100 and sonicated for 1 min. Reactions are carried out for 1 h at 37° C. in 100 mM Tris-HCl pH 7.4, 10 mM MgCl2, 0.2% Triton X-100. This assay has been optimized in 384-well format (50 μL total volume per well) under conditions where nSMase2-catalyzed hydrolysis of SM is linear with respect to nSMase2 concentration, time of incubation and SM concentration (FIGS. 3A-3C). The assay has high reliability (Z′=0.8-0.9). It is used for compound screening, IC50 determinations and mode of inhibition studies. IC50 determinations are carried out in duplicate eight-point dose response curves. A counter screen is concomitantly carried out to identify false positives resulting from inhibition of the coupling enzymes. […]

As for `O=C(/C=C/c1ccc(/C=C/C(=O)Nc2ccc(C3=NCCN3)cc2)cc1)Nc1ccc(C2=NCCN2)cc1` [GW4869], the solubility entry in data set [1] was “poor solubility”.

For `COc1ccc(-c2c(C)nc3c(N4CC[C@@H](NS(=O)(=O)c5ccc(C(F)(F)F)cc5)C4)cc(C)nn23)cc1OC` [compound 30, (R)—N-(1-(3-(3,4-dimethoxyphenyl)-2,6-dimethylimidazo[1,2-b]pyridazin-8-yl)pyrrolidin-3-yl)-4-(trifluoromethyl)benzenesulfonamide], the “exosome release from astrocytes” value in the data set on rat astrocytes was “decreased the number of exosomes released from astrocytes in a dose dependent manner”. Also, in [2], the “Human Liver Microsome (+) NADPH Remaining at 60 min” value came to 61 ± 3%. Moreover, the “Mouse Liver Microsome (+) NADPH % Remaining at 60 min” value in data set [3] was determined as 15 ± 5%.

With `COc1ccc(-c2c(C)nc3c(N4CC[C@@H](NC(=O)Oc5ccccc5)C4)cc(C)nn23)cc1OC` [compound 38, Phenyl (R)-(1-(3-(3,4-dimethoxyphenyl)-2,6-dimethylimidazo[1,2-b]pyridazin-8-yl)pyrrolidin-3-yl) carbamate], the “exosomes in plasma after striatal IL-1β injection” value with GFAP-GFP mice is on record as “significantly reduced the increased exosomes”. In addition, the “exosome release from astrocytes” value with rat astrocytes is recorded as “decreased the number of exosomes released from astrocytes in a dose dependent manner”. For the same molecule, the “inhibition of acid sphinghomyelinase” value at acid sphinghomyelinase is reported as “not inhibiting”. Besides, in the data set with alkaline phosphatase, the “inhibition of alkaline phosphatase” value is listed as “not inhibiting”. For the same molecule, the “Human Liver Microsome (+) NADPH Remaining at 60 min” value in [2] is given as 103 ± 14%. Besides, in data set [4] (10 mg/kg i.p.), the systemic exposure entry is on record as “high systemic exposures”. In [4] (10 mg/kg peroral), the brain exposure entry is recorded as “high brain exposures” and the plasma exposure result is given as “high plasma exposures”. Moreover, the “inhibition of positive hits” value in data set [5] (10 μM, all positive hits) is on record as “less than 100%”. In data set [5] (off targets vs nSMase2), the “segregation in potency between off targets and nSMase2” value is given as at least 20 fold.

As for `COc1ccc(-c2c(C)nc3c(N4CCCC4)cc(C)nn23)cc1OC` [compound 44, 3-(3,4-dimethoxyphenyl)-2,6-dimethyl-8-(pyrrolidin-1-yl)imidazo[1,2-b]pyridazine], the “exosome release from astrocytes” value in the data set on rat astrocytes is recorded as “decreased the number of exosomes released from astrocytes in a dose dependent manner”. Moreover, in data set [2], the “Human Liver Microsome (+) NADPH Remaining at 60 min” value turned out to be 58 ± 4%. For the same molecule, the “Mouse Liver Microsome (+) NADPH % Remaining at 60 min” value in data set [3] was determined as 1 ± 0%.

Turning to `COc1ccc(-c2c(-c3ccc(C)cc3)nc3c(N4CC[C@@H](NC(C)=O)C4)cc(C)nn23)cc1OC` [compound 62, (R)—N-(1-(3-(3,4-dimethoxyphenyl)-6-methyl-2-(p-tolyl)imidazo[1,2-b]pyridazin-8-yl)pyrrolidin-3-yl)acetamide], in the data set on rat astrocytes, the “exosome release from astrocytes” value is given as “decreased the number of exosomes released from astrocytes in a dose dependent manner”. Moreover, the “Human Liver Microsome (+) NADPH Remaining at 60 min” value in data set [2] is listed as 28 ± 5%. For the same molecule, the “Mouse Liver Microsome (+) NADPH % Remaining at 60 min” value in data set [3] stood at 53 ± 6%.

The values are drawn from patent US11427590B2, “Small molecule inhibitors of neutral sphingomyelinase 2 (nSMase2) for the treatment of neurodegenerative diseases” (The Johns Hopkins University, priority 2017, dated 2022).
